# Assay results published in patent US7273723B2, “Antibiotic-based gene regulation system” (priority 2001, dated 2007).
# How the values were obtained:
# [1] = tested on: transrepressors MphR(A) or ET4 (MphR(A)-KRAB) / PETRON promoters; assay: Erythromycin-inducible EON system, SEAP assay in transiently cotransfected CHO-K1; assay type: cell-based; conditions: for SEAP activity [U/L] +Erythromycin [2 μg/ml]: CHO-K1, 48 hrs, title: erythromycin (2 μg/ml)
# Text: The classical ET/PETR system belongs to the “OFF” family of regulation concepts since gene expression is activated upon withdrawal of the regulating antibiotic. However, in some applications such as gene therapy and tissue engineering an “ON” system that is induced upon addition of macrolide antibiotics is more desirable. We therefore constructed a new MphR(A)-based binary EON system which consists of a PETRON promoter and a set of two different transrepressors. Two different PETRON promoters were constructed: PETRON4 consists of an ETR4 (four tandem repetitions of ETR, SEQ ID NO 26) placed downstream of the strong viral SV40 promoter. PETRON8 contains eight tandem repetitions (SEQ ID NO 27) of ETR instead of four.
# Transrepressors such as ET4 (SEQ ID NO 10, example 1, FIG. 2), which consists of a protein fusion between MphR(A) and the KRAB silencing domain of the human kox-1 gene (Deuschle et al., 1995, Mol. Cell Biol. 15: 1907-1914) or MphR(A) alone, bind to ETR in front of PSV40 and block transcription of this promoter. Besides sterical transcription blocking, the silencing domain of ET4 can additionally downregulate PSV40 activity.
# The ETR4 sequence (SEQ ID NO: 26) was excised from the WEBE Gene vector (custom synthesized by Operon Technologies Inc.) by SfuI and EcoRI and ligated into the corresponding sites of pMF208 (Fussenegger et al., 2000. supra) thus resulting in plasmid pWW55 (FIG. 7) containing the PSV40-ETR4-SEAP cassette. The combination of PSV40 and ETR4 is designated PETRON4. For construction of PETRON8, ETR4 was excised (PmeI/EcoRI) from pWW55 and cloned into pWW55 restricted with (EcoRV/EcoRI) thus resulting in SV40-ETR8-SEAP (pWW56).
# ET4, the MphR(A)-KRAB fusion protein was constructed as described in example 1 (SEQ ID NO 10). For expression of MphR(A) pWW29 (SEQ ID NO 4) was used. The stop codon of the original MphR(A) has been mutated in order to allow fusion to the various transactivating and transrepressing domains. Because of the mutation of this stop codon the mphR(A) gene contained in pWW29 is terminated a few bp downstream at the next stop codon encountered in the vector sequence. However, the resulting MphR(A) protein preserves its role as transcriptional repressor in the EON configuration.
# The regulation performance of PETRON4 (PSV40-ETR4-SEAP-pA; pWW55) and PETRON8 (PSV40-ETR8-SEAP-pA; pWW56) was assessed in CHO-K1 cells harboring the MphR(A) expression vector pWW29 (PEF1α-E-pA) (Table 7).
# [2] = tested on: ET1 / erythromycin-responsive promoter PETR3; assay: SEAP assay in CHO-Triplet42 transfected with PETR3-SEAP (pWW38); assay type: cell-based; conditions: CHO-Triplet42 + PWW38 (PETR3); antibiotic 2 μg/ml; 48 h
# Method: Chinese hamster ovary cells (CHO-K1, ATCC: CCL 61), and HeLa cells (ATCC: CRL-7923) as well as stable cell lines derived thereof were cultured as described before (Fussenegger et al., 1998, Nat. Biotechnol. 16,468-472) in the presence of appropriate antibiotics: G418 400 μg/ml; zeocin 100 μg/ml. Optimized CaPO4 protocols were used for high efficiency transient transfection of all cell lines (Fussenegger et al., 1998. Nat. Biotechnol. 16: 468-472). Transiently transfected cells were routinely analyzed after 48 h for CFP or SEAP expression using fluorescence microscopy and p-nitrophenolphosphate-based light absorbance timecourse, respectively, as described before (Fussenegger et al., 1998, Nat. Biotechnol. 16, 468-472; Berger et al., 1988, Gene 66, 1-10 b). For construction of stable CHO-ET1 and CHO-Triplet42 cell lines, CHO-Ki and CHO-TWIN1108 (Disclosed in PCT application no. 00/65080) were cotransfected with pWW35 and pZeoSV2 (invitrogen). CHO-ET11-SEAP was constructed by cotransfection of pWW38 and pSV2neo (Clontech) into CHO-ET11. The mixed populations were cloned using FACS-mediated single-cell-sorting (FACStar^Plus; Beckton Dickinson). For assessment of dose-response characteristics of PETR3-regulated gene expression, CHO-ET11-SEAP were cultured at cell densities of 50,000/ml for 48 h at various EM concentrations.
# Other antibiotics were eluted from antibiotic test discs (Mast Diagnostica GmbH, Reinfeld, Germany, or bioMérieux, Geneva Switzerland) in cell culture medium at 37° C. for 12 h to reach a final concentration of 30 μg/ml. All macrolide antibiotics were used at a 2 μg/ml concentration unless indicated otherwise.
# The regulation performance of the EM-based regulation system was compared directly with the widely used TET- and PIP responsive expression concepts. To this end, we have constructed a stable CHO-K1-derived cell line expressing ET1, PIT and tTA (CHO-Triplet42). […] CHO-Triplet42 was transfected with either isogenic (i) PETR3-(pWW38), (ii) a PPIR-(pristinamycin-responsive promoter, pMF172, Fussenegger et al., 2000. supra.), or (iii) a PhCMV*-1-(tetracycline-responsive promoter, pMF111, Fussenegger et al., 2000. supra) driven SEAP expression vector to assess the individual regulation performance of the three antibiotic-responsive gene regulation systems in CHO cells (Table 5).
# To analyze the relative regulatory characteristics, we evaluated induction factors (IF; ratio of maximal expression level to antibiotic-repressed expression level).
# These repressive effects are still in a range which is tolerable for use in potential medical applications.
# [3] = tested on: CHO cells; assay: CHO cell morphology and growth in the presence of EM; assay type: cell-based, Chinese hamster; conditions: EM 2 μg/ml
smiles,measurement,setting,value
CC[C@H]1OC(=O)[C@H](C)[C@@H](O[C@H]2C[C@@](C)(OC)[C@@H](O)[C@H](C)O2)[C@H](C)[C@@H](O[C@@H]2O[C@H](C)C[C@H](N(C)C)[C@H]2O)[C@](C)(O)C[C@@H](C)C(=O)[C@H](C)[C@@H](O)[C@]1(C)O [Erythromycin],SEAP activity [U/L] +Erythromycin [2 μg/ml],[1]; PETR-ON4 + ET4,35.7 ± 4.7 U/L
same,SEAP activity [U/L] +Erythromycin [2 μg/ml],[1]; PETR-ON4 + MphR(A),175.7 ± 6.2 U/L
same,Induction factor (expression in induced state to expression in repressed state),[1]; PETR-ON4 repressed by MphR(A),~5
same,SEAP activity [U/L] +Erythromycin [2 μg/ml],[1]; PETR-ON8 + ET4,55.4 ± 1.8 U/L
same,SEAP activity [U/L] +Erythromycin [2 μg/ml],[1]; PETR-ON8 + MphR(A),81.6 ± 4.3 U/L
same,Induction factor (expression in induced state to expression in repressed state),[1]; PETR-ON8 repressed by MphR(A),~5
same,SEAP activity [U/L],[2],3.8 ± 0.4 U/L
same,Effects on CHO cell morphology and growth,[3],No deleterious effects
